Results reported in patent US20210171503A1, “GLYCOLATE OXIDASE INHIBITORS AND USE THEREOF” (ORFAN BIOTECH INC., priority 2017, published 2021).
Counter-ions that a name gives are not always drawn.

These compounds were tested against T1, mouse glycolate oxidase (mGO) (Mus musculus, UniProt Q9WU19) (assay: In vitro inhibition of mouse glycolate oxidase (mGO), HRP-coupled Trinder reaction). Details: compound tested at 100 μM; 40 mM glycolic acid as substrate; activity calculated at 1 minute.
T1 construct: His6 (N); made in house; host or cells: E. coli BL21 (DE3)
T1 sequence (Q9WU19 1-370): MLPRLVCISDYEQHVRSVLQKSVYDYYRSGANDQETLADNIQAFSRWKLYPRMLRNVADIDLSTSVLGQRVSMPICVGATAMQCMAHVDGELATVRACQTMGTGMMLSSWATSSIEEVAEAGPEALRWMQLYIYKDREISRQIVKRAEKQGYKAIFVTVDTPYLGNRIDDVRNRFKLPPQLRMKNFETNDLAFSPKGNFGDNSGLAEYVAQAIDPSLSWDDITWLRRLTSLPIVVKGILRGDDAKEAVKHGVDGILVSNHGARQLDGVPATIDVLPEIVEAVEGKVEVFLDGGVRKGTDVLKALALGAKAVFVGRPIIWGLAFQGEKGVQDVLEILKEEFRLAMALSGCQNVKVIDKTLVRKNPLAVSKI
Assay type: biochemical
Procedure: Protein expression. BL21 (DE3) E. coli transformed with recombinant pET-15b expression vector containing mouse Hao1 cDNA with an N-terminal His6 tag was grown in LB medium in the presence of 0.1 mg/mL ampicillin. For purification of recombinant mGO expressed in BL21 E. coli, bacteria pellets were thawed and re-suspended in 2 mL lysis buffer (50 mM NaH2PO4, 300 mM NaCl, 10 mM imidazole, 50 μM flavin mononucleotide (FMN), pH 7.5), and then treated for 30 minutes with 1 mM phenylmethylsulfonyl fluoride (PMSF) for protease inhibition, 0.1% Triton X-100 and 0.2 mg/mL lysozyme to break cellular membranes. After sonication, cells were centrifuged and the supernatant containing the total cellular extract (pre-column fraction) was loaded into a Ni-NTA agarose column, and incubated for 30 minutes at 4° C. to allow binding. The column was washed with two bed volumes of lysis buffer with 20 mM imidazole to eliminate unbound proteins (wash fraction). mGO was eluted using the same buffer containing 300 mM imidazole. Fractions containing purified GO were dialyzed against 300 mL of dialysis buffer (50 mM NaH2PO4, 300 mM NaCl, pH 7.5) at 4° C. with agitation overnight, and then kept at 4° C. in darkness. Protein was quantified by the bicinchoninic acid (BCA) assay.
Inhibition assays. Enzymatic activity of mGO was determined in the presence of glycolate as substrate (40 mM glycolic acid) and phosphate buffer (50 mM KPO4, 0.1 mM EDTA, pH 7). The production of glyoxylate was indirectly measured by the quantification of hydrogen peroxide formed during the first oxidation reaction. This hydrogen peroxide reacted with 4.9 mM 4-aminoantipyrine and 0.1 mM sulphonated […] in a coupled horseradish peroxidase (HRP) reaction that yields a quinoneimine dye (FIG. 1) measured at 515 nm (Trinder reaction). Enzymatic activity was calculated at 1 minute after initiation of the Trinder reaction.

Row | inhibition at 100 µM [%] | Structure (SMILES)
1 | 30 to 60 | Cc1n[nH]c(C(=O)O)c1N(Cc1ccc(F)cc1)Cc1ccc(F)cc1 [Compound 44, 4-(bis(4-Fluorobenzyl)amino)-3-methyl-1H-pyrazole-5-carboxylic Acid]
2 | 30 to 60 | Cc1snc(C(=O)O)c1Nc1cccc(-c2ccc(C#N)cc2)c1 [Compound 36, 4-((4′-Cyano-[1,1′-biphenyl]-3-yl)amino)-5-methylisothiazole-3-carboxylic Acid]
3 | < 30 | O=C(O)c1nnccc1SCc1ccccc1 [Compound 76, 4-(Benzylthio)pyridazine-3-carboxylic Acid]
4 | < 30 | O=C(O)c1nnsc1Cc1ccc(F)cc1 [Compound 16, 5-(4-Fluorobenzyl)-1,2,3-thiadiazole-4-carboxylic Acid]
5 | > 60 | O=C(O)c1nnsc1Nc1cccc(Br)c1 [Compound 23, 5-((3-Bromophenyl)amino)-1,2,3-thiadiazole-4-carboxylic Acid]
6 | 30 to 60 | Cc1[nH]nc(C(=O)O)c1Cc1ccc(-c2ccc(C#N)cc2)cc1 [Compound 7, 4-((4′-Cyano-[1,1′-biphenyl]-4-yl)methyl)-5-methyl-H-pyrazole-3-carboxylic Acid]
7 | 30 to 60 | COc1ccc(CN(c2ccc(-c3ccc(C#N)cc3)cc2)c2c(C(=O)O)n[nH]c2C)cc1 [Compound 57, 4-((4′-cyano-[1,1′-biphenyl]-4-yl)(4-methoxybenzyl)amino)-5-methyl-1H-pyrazole-3-carboxylic Acid]
8 | 30 to 60 | N#Cc1ccc(-c2ccc(Cc3snnc3C(=O)O)cc2)cc1 [Compound 14, 5-((4′-Cyano-[1,1′-biphenyl]-4-yl)methyl)-1,2,3-thiadiazole-4-carboxylic Acid]
9 | 30 to 60 | O=C(O)c1nnccc1Nc1ccc(Cc2ccc(OCCC3CCNCC3)cc2)cc1 [Compound 71, 4-((4-(4-(2-(Piperidin-4-yl)ethoxy)benzyl)phenyl)amino)-pyridazine-3-carboxylic Acid hydrochloride]
10 | > 60 | O=C(O)c1nnsc1Nc1ccc(F)cc1 [Compound 22, 5-((4-Fluorophenyl)amino)-1,2,3-thiadiazole-4-carboxylic Acid]
11 | > 60 | O=C(O)c1nnsc1Cc1ccc(Br)cc1 [Compound 15, 5-(4-Bromobenzyl)-1,2,3-thiadiazole-4-carboxylic Acid]
12 | < 30 | Cc1[nH]nc(C(=O)O)c1Nc1ccc(Cc2ccc(OCCN3CCNCC3)cc2)cc1 [Compound 64, 5-methyl-4-((4-(4-(2-(piperazin-1-yl)ethoxy)benzyl)phenyl)amino)-1H-pyrazole-3-carboxylic Acid hydrochloride]
13 | < 30 | Cc1onc(C(=O)O)c1SCc1ccccc1 [Compound 51, 4-(Benzylthio)-5-methylisoxazole-3-carboxylic Acid]
14 | 30 to 60 | Cc1[nH]nc(C(=O)O)c1Nc1cccc(Br)c1 [Compound 41, 4-((3-Bromophenyl)amino)-5-methyl-1H-pyrazole-3-carboxylic Acid]
15 | < 30 | Cc1onc(C(=O)O)c1Nc1ccc(C#N)cc1 [Compound 30, 4-((4-Cyanophenyl)amino)-5-methylisoxazole-3-carboxylic Acid]
16 | < 30 | Cc1snc(C(=O)O)c1Cc1ccc(F)cc1 [Compound 13, 4-(4-Fluorobenzyl)-5-methylisothiazole-3-carboxylic Acid]
17 | 30 to 60 | N#Cc1ccc(-c2cccc(Nc3ccnnc3C(=O)O)c2)cc1 [Compound 48, sodium salt, 4-((4′-Cyano-[1,1′-biphenyl]-3-yl)amino)pyridazine-3-carboxylic Acid]
18 | < 30 | Cc1[nH]nc(C(=O)O)c1Cc1ccc(F)cc1 [Compound 12, 5-Methyl-4-(4-fluorobenzyl) 1H-pyrazole-3-carboxylic Acid]
19 | < 30 | Cc1[nH]nc(C(=O)O)c1Cc1ccc(Br)cc1 [Compound 8, 4-(4-Bromobenzyl)-5-methyl-1H-pyrazole-3-carboxylic Acid]
20 | 30 to 60 | Cc1onc(C(=O)O)c1NCc1ccc(Oc2ccc(C#N)cc2)cc1 [Compound 31, 4-((4-(4-Cyanophenoxy)benzyl)amino)-5-methylisoxazole-3-carboxylic Acid]
21 | 30 to 60 | O=C(O)c1nnccc1Cc1ccc(F)cc1 [Compound 19, 4-(4-Fluorobenzyl) pyridazine-3-carboxylic Acid]
22 | 30 to 60 | Cc1onc(C(=O)O)c1Sc1ccc(F)cc1 [Compound 46, 4-((4-Fluorophenyl)thio)-5-methylisoxazole-3-carboxylic Acid]
23 | 30 to 60 | Cc1snc(C(=O)O)c1NCc1ccc(F)cc1 [Compound 37, 4-((4-Fluorobenzyl)amino)-5-methylisothiazole-3-carboxylic Acid]
24 | > 60 | CCCCCC(Sc1c(C(=O)O)n[nH]c1C)c1ccc(F)cc1 (centres unmarked) [Compound 79, 4-((1-(4-Fluorophenyl)hexyl)thio)-5-methyl-1H-pyrazole-3-carboxylic Acid]

Row | Structure (SMILES) | inhibition at 100 µM [%]
25 | CC(C)(C)OC(=O)N1CC(OCCOc2ccc(Cc3ccc(Nc4ccnnc4C(=O)O)cc3)cc2)C1 [Compound 68 Na salt, 4-((4-(4-(2-((1-(tert-butoxycarbonyl)azetidin-3-yl)oxy)ethoxy)benzyl)phenyl)amino)pyridazine-3-carboxylic Acid sodium Salt] | > 60
26 | Cc1[nH]nc(C(=O)O)c1Nc1ccc(Cc2ccc(OCCN3CCN(C(=O)OC(C)(C)C)CC3)cc2)cc1 [Compound 63, 4-((4-(4-(2-(4-(tert-butoxycarbonyl)piperazin-1-yl)ethoxy)benzyl)phenyl)amino)-5-methyl-1H-pyrazole-3-carboxylic Acid] | < 30
